Paper PMC11904993, “Humanized Candida and NanoBiT Assays Expedite Discovery of Bdf1 Bromodomain Inhibitors With Antifungal Potential” (Advanced Science, 2025)
“And” between values parts separate entries of the source, which are not always exact repeats. Equal entries are not always repeated. Where two headings read alike, the source gives them in different places.

How the values were obtained:
[1] = tested on: C. glabrata expressing humanized Bdf1 (Brd4 BDs); assay: Growth inhibition in liquid media, humanized C. glabrata strains; settings: for %Growth: Fig 3F, humanized BDF1-flag; for EC50: Nakaseomyces glabratus
Method: (§1) Growth on Liquid Media with C. glabrata Lab Strains: Cells were grown at 30 °C in SC+M+C‐U medium (SC medium with 5 mM methionine, 0.25 mM cysteine, without uracil) to an OD600 of 0.5–0.8. […] Plates were incubated at 30 °C and OD600 was measured using a Multiskan FC Microplate Photometer (Thermo Fisher).

[2] = tested on: C. glabrata strains expressing WT and mutant Bdf1; assay: Growth inhibition in liquid media, C. glabrata lab strains; settings: for %Growth: WT BDF1-flag
Method: as §1

human Brd4 BD2 = biological target: T1, human Brd4 BD2 (Homo sapiens, UniProt O60885); assay: HTRF assay, inhibition of H4ac4 peptide binding; settings: Brd4 BD2
T1 construct: GST‐tagged BD2 (residues 349–460) from human Brd4 (UniProt ID O60885); purchased Reaction Biology Corp

C. auris Bdf1 BD1 = C. auris Bdf1 BD1 (Candidozyma auris (Candida auris), UniProt A0AAW0VEM6); assay: HTRF assay, inhibition of H4ac4 peptide binding
Sequence of C. auris Bdf1 BD1 (A0AAW0VEM6 entry or part of it): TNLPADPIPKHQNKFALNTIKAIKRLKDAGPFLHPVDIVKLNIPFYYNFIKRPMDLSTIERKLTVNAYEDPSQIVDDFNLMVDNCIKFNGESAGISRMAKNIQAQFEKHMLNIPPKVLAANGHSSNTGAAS

[3] = biological target: T2, Bdf1‐SmBiT/H2A.Z‐LgBiT pair (Saccharomyces cerevisiae, UniProt P35817); assay: NanoBiT assay; type: cell-based, S. cerevisiae; design: remaining activity: dose or concentration left out as unconfirmed
T2 construct: expressed in transfected cells; host or cells: S. cerevisiae (H2A.Z-LgBiT strain)
T2 sequence (P35817 whole entry): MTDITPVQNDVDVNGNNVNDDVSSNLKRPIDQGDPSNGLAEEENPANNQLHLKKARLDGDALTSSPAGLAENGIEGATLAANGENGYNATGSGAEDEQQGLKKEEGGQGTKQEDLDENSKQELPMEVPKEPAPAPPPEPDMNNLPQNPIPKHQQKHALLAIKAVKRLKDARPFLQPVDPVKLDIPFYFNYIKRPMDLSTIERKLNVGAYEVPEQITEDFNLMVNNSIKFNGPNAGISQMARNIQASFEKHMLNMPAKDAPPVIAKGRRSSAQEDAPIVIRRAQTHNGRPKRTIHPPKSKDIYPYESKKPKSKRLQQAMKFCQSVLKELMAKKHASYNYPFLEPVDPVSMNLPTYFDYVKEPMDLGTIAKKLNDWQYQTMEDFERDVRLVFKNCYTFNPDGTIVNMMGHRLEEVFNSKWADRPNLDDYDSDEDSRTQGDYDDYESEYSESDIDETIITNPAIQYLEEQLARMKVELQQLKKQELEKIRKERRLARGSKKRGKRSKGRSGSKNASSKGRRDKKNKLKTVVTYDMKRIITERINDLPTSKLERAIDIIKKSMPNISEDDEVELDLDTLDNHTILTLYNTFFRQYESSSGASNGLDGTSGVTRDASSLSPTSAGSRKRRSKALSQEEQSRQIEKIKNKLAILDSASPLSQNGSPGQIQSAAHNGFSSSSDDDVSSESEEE
Method: Yeast strains were distributed in 96‐well microplates containing SC(MSG)‐U medium (SC‐U medium with 0.1% monosodium glutamate instead of ammonium sulfate as a nitrogen source) and grown at 30 °C. 40 µL of exponentially growing cells were transferred in white 96‐well half‐area microplates (ProxiPlate Plus, Greiner Bio‐One) previously filled with 40 µL per well of SC(MSG) containing 100 µM furimazine. The microplates were then incubated for 10 min in the dark before the luminescence signals were recorded using a microplate reader (Ensight, PerkinElmer). Luminescence measurements were performed for 1 s per well at a distance of 0.1 mm between the plate and the detector. The luminescence values were normalized with the optical density (OD600) of the corresponding cultures. For NanoBiT assays with BET inhibitors, yeast cultures were grown overnight at 30 °C in SC(MSG) medium in the presence of serial dilutions of 24c and I‐BET726. Overnight cultures were diluted 5 fold in SC(MSG) and incubated for 1 h before luminescence was recorded as previously indicated. Luminescence values for each condition were normalized using the average of the luminescence recorded for the Bdf1/Swc4 and Bmh1/Bmh2 controls.

[4] = read-out: HTRF signal, normalized (Figure 5A data)

CC(=O)N1c2ccc(-c3ccc(C(=O)O)cc3)cc2C(Nc2ccc(Cl)cc2)CC1C (stereo not shown) [I-BET726]
%Growth ([1]; 1.1111 µM): 2.92% and 3.13% and 4.77% | %Growth ([1]; 3.3333 µM): 1.04% and 1.36% and 2.75% | EC50 ([1]; read-out: EC50 (μM) growth inhibition, Fig 3F, strain bdf1-hBD1-FLAG): 0.25 ± 0.03 µM | EC50 ([1]; read-out: EC50 (μM) growth inhibition, Fig 3F, strain bdf1-hBD2-FLAG): 0.019 ± 0.002 µM | EC50 ([1]; read-out: EC50 (μM), C. glabrata (hum), Fig 5C, both BDs humanized): 0.043 ± 0.024 µM | EC50 ([1]; read-out: EC50 growth inhibition, strain expressing humanized Bdf1): 0.014 µM | %Growth ([2]; Fig 3E, 50 µM, Exp 1-3): 24% and 29% and 27% | %Growth ([2]; Fig 3F, 0.0412 µM): 86.79% and 92.92% and 93.05% | %Growth ([2]; Fig 3F, 0.1235 µM): 78.65% and 90.9% and 90.48% | %Growth ([2]; Fig 3F, 0.3704 µM): 70.78% and 76.63% and 84.08% | %Growth ([2]; Fig 3F, 1.1111 µM): 65.69% and 73.22% and 70.81% | %Growth ([2]; Fig 3F, 3.3333 µM): 37.23% and 49.84% and 57.55% | %Growth ([2]; Fig 3F, 10 µM): 20.2% and 22.05% and 23.51% | EC50 ([2]; Nakaseomyces glabratus, read-out: EC50 (μM) growth inhibition, Fig 3F, strain BDF1-FLAG (WT Bdf1)): 3.24 ± 0.75 µM | EC50 ([2]; Nakaseomyces glabratus, read-out: EC50 (μM) growth inhibition, strain bdf1-Y166F (active BD: BD2)): 1.98 ± 0.36 µM | EC50 ([2]; Nakaseomyces glabratus, read-out: EC50 (μM) growth inhibition, strain bdf1-Y343F (active BD: BD1)): ~25 µM | EC50 ([2]; Nakaseomyces glabratus, read-out: EC50 (μM) growth inhibition, strain bdf1-bd1Δ (active BD: BD2)): 1.17 ± 0.1 µM | EC50 ([2]; Nakaseomyces glabratus, read-out: EC50 (μM) growth inhibition, strain bdf1-bd2Δ (active BD: BD1)): 13.7 ± 4.9 µM | Growth (%) ([2]; WT BDF1, 20 µM, Fig 5B): 34% | EC50 ([2]; read-out: EC50 (μM) growth inhibition, Fig 3F, strain BDF1-FLAG (WT Bdf1)): 3 µM and 3.2 µM | HTRF signal, normalized (Figure 5A data) (human Brd4 BD2; 0.0537 nM): 102.97 and 106.08 and 108.84 and 105.09 | HTRF signal, normalized (Figure 5A data) (human Brd4 BD2; 0.13 nM): 103.72 and 102.37 and 103.68 and 103.57 | HTRF signal, normalized (Figure 5A data) (human Brd4 BD2; 0.34 nM): 94.46 and 91.58 and 95.80 and 94.95 | HTRF signal, normalized (Figure 5A data) (human Brd4 BD2; 0.84 nM): 79.67 and 69.64 and 75.99 and 78.48 | HTRF signal, normalized (Figure 5A data) (human Brd4 BD2; 2.10 nM): 45.84 and 41.04 and 44.03 and 46.83 | HTRF signal, normalized (Figure 5A data) (human Brd4 BD2; 5.24 nM): 8.26 and 9.91 and 8.75 and 10.80 | HTRF signal, normalized (Figure 5A data) (human Brd4 BD2; 32.77 nM): 3.03 and 2.91 and 2.46 and 2.11 | HTRF signal, normalized (Figure 5A data) (human Brd4 BD2; 81.92 nM): 2.74 and 1.64 and 1.67 and 2.48 | HTRF signal, normalized (Figure 5A data) (human Brd4 BD2; 512 nM): 2.01 and 2.50 and 2.14 and 2.65 | remaining activity at 0.0021 µM (C. auris Bdf1 BD1; CauBD1, 2.10 nM, read-out: HTRF signal, normalized (Figure 5A data)): 105% | remaining activity at 0.01311 µM (C. auris Bdf1 BD1; CauBD1, 13.11 nM, read-out: HTRF signal, normalized (Figure 5A data)): 103% | remaining activity at 0.03277 µM (C. auris Bdf1 BD1; CauBD1, 32.77 nM, read-out: HTRF signal, normalized (Figure 5A data)): 106% | remaining activity at 0.2048 µM (C. auris Bdf1 BD1; CauBD1, 204.8 nM, read-out: HTRF signal, normalized (Figure 5A data)): 107% | remaining activity at 1.28 µM (C. auris Bdf1 BD1; CauBD1, 1280 nM, read-out: HTRF signal, normalized (Figure 5A data)): 100% | remaining activity at 3.2 µM (C. auris Bdf1 BD1; CauBD1, 3200 nM, read-out: HTRF signal, normalized (Figure 5A data)): 74.9% | remaining activity at 8 µM (C. auris Bdf1 BD1; CauBD1, 8000 nM, read-out: HTRF signal, normalized (Figure 5A data)): 34.7% | IC50 (C. auris Bdf1 BD1; Fig 5A, four replicates, read-out: IC50 (μM) BD1, C. aur. Bdf1): 14.7 ± 0.1 µM | remaining activity at 0.00524 µM (C. auris Bdf1 BD1; [4]): 103% | remaining activity at 0.512 µM (C. auris Bdf1 BD1; [4]): 103% | remaining activity at 24.41 µM ([3]; Bdf1-SmBiT, Htz1-LgBiT, 0.02441 mM, Fig 4C, read-out: Normalized nanoBiT signal): 92% | remaining activity at 97.66 µM ([3]; Bdf1-SmBiT, Htz1-LgBiT, 0.09766 mM, Fig 4C, read-out: Normalized nanoBiT signal): 93% | remaining activity at 195.31 µM ([3]; Bdf1-SmBiT, Htz1-LgBiT, 0.19531 mM, Fig 4C, read-out: Normalized nanoBiT signal): 96% | remaining activity at 390.63 µM ([3]; Bdf1-SmBiT, Htz1-LgBiT, 0.39063 mM, Fig 4C, read-out: Normalized nanoBiT signal): 92% | remaining activity at 781.25 µM ([3]; Bdf1-SmBiT, Htz1-LgBiT, 0.78125 mM, Fig 4C, read-out: Normalized nanoBiT signal): 83% | remaining activity at 1562.5 µM ([3]; Bdf1-SmBiT, Htz1-LgBiT, 1.56250 mM, Fig 4C, read-out: Normalized nanoBiT signal): 65% | remaining activity at 3125 µM ([3]; Bdf1-SmBiT, Htz1-LgBiT, 3.12500 mM, Fig 4C, read-out: Normalized nanoBiT signal): 46% | remaining activity ([3]; Bdf1-SmBiT, Htz1-LgBiT, […], Fig 4C, read-out: Normalized nanoBiT signal): 39% | IC50 ([3]; mean and s.d., 4 independent experiments, read-out: IC50 (μM) (ScBdf1 / H2A.Z) NanoBiT signal): 2.1 µM | remaining activity at 48.83 µM ([3]; read-out: Normalized nanoBiT signal): 96%
